Results: article PMC11645656, “MRGPRX4 mediates phospho-drug associated pruritus in a humanized mouse model” (Science translational medicine, 2024)
Values joined by “and” are separate entries in the source; they are usually repeats but may differ in a detail not shown here. Equal entries are not always repeated.

What was measured:
Type in all cases: cell-based
[1] = molecular target: MRGPRX4 WT (S83) (Homo sapiens, UniProt Q96LA9, L83S); assay: PRESTO-Tango β-arrestin recruitment assay, HTLA cells stably expressing WT (S83) MRGPRX4; parameters: expressed in transfected cells; conditions: HTLA::MRGPRX4
Description: HTLA cells, a cell line derived from HEK293 and engineered to stably express a tTA-dependent luciferase reporter and a β-arrestin2-TEV fusion gene, were generously provided by Richard Axel's laboratory. HTLA cells were cultured in growth medium containing 2 μg/ml puromycin and 100 μg/ml hygromycin B in 5% CO2 at 37 °C. Stably MRGPRX4-expressing HTLA cells were generated by transfecting pcDNA3.1(+)-Zeo containing MRGPRX4-Tango construct (either with WT or S83L mutant sequence) into HTLA cells with Lipofectamine 3000 and selecting the successful transfected clones with Zeocin.
HTLA cells stably expressing either WT or S83L MRGPRX4 were seeded in PDL-coated 96-well white clear bottom cell culture plates with DMEM containing 10% FBS, at a density of 35,000 cells per well and were allowed to attach to the bottom of the wells overnight. The next day, growth medium was replaced with 100 μl of serum-free medium containing the tested drugs at various concentrations, and the cells were then incubated at 37°C for 24 h. On the following day, media with drug solutions was removed and 50 μl per well of Bright-Glo™ Reagent from Bright-Glo™ Luciferase Assay System (Promega) was loaded. The plate was incubated at room temperature in the dark for 5 min, and the relative luminescence units were measured using the Flexstation-3 instrument with SoftMax®Pro 7.1 software (Molecular Devices). Dose response curves and EC50s were analyzed as described above.
Data are from at least two independent experiments, each performed in
triplicate, and are depicted as mean ± SEM.
arrestin2-TEV fusion gene and a tTA -dependent luciferase reporter.

[2] = test system: HTLA cells; assay: PRESTO-Tango β-arrestin recruitment assay, parental HTLA cells without MRGPRX4 (control, fig. S1)
Excerpt: Supplement NIHMS2038790-supplement-table.xlsx, sheet "fig. S1" | column: Concentration (M)

[3] = molecular target: T1, MRGPRX4 (S83) (Homo sapiens, UniProt Q96LA9, L83S); assay: EC50 determination, intracellular calcium mobilization in MRGPRX4 stably expressed HEK293 cells (FLIPR Calcium 5, Flexstation-3); parameters: Fig. 1D dose-response, calcium mobilization response (individual replicate) / calcium mobilization response (Fig. 1D dose-response raw data): unit not given here
T1 construct: expressed in transfected cells
Description: HEK293 cells and MRGPRX4 stably expressed HEK293 cells were seeded in 100 μl culture media on 96-well plates at a density of 40,000 cells per well and incubated overnight. The next day, the media were replaced with a dye-loading solution from the FLIPR Calcium 5 assay kit (Molecular Devices), diluted in Hank's Balanced Salt Solution (HBSS) with 20 mM HEPES, pH 7.4. After 1 h of incubation at 37°C, cells were allowed to recover for 10 min in the dark at room temperature prior to performing intracellular calcium mobilization assay in a Flexstation-3 instrument with SoftMax®Pro 7.1 software (Molecular Devices). Serial concentrations of tested drugs were prepared in HBSS/HEPES solution at 3X concentration. […] Compounds were tested in triplicates and the signals were averaged. Responses were determined by subtracting the minimum signal (at the baseline before adding the drug) from the maximum signal (obtained after drug stimulation). Four-parameter logistic (4PL) curve fit was used to plot the dose-response curves. […] Both dose-response curve fitting and EC50s calculation are computed with GraphPad Prism software (version: 6.o or above).

T1 sequence (Q96LA9 whole entry L83S): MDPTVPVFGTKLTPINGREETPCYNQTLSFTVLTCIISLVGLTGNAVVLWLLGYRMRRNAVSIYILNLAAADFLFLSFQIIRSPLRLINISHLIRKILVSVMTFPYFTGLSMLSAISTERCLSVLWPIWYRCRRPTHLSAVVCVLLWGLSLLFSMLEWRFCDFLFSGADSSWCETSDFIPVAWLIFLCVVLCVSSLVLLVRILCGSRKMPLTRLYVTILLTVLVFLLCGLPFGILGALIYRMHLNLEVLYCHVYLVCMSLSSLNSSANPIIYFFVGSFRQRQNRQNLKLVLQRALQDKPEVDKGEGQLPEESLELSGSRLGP
Chain of MRGPRX4 WT (S83) (Q96LA9 whole entry L83S, the tested form may be a part): as the sequence (Q96LA9 whole entry L83S) above

C[C@@H]1C[C@H]2[C@@H]3CCC4=CC(=O)C=C[C@]4(C)[C@@]3(F)[C@@H](O)C[C@]2(C)[C@@]1(O)C(=O)CO [Dexamethasone]
PRESTO-Tango response (fig. S1), single replicate ([1]; concentration 9.77e-7 M): 0.05502 and 0.04613 and 0.0583 and 0.05727 and 0.00632 and 0.09586
PRESTO-Tango response (fig. S1), single replicate ([1]; concentration 1.95e-6 M): 0.08603 and 0.06619 and 0.1004 and 0.1201 and 0.05846 and 0.07406
PRESTO-Tango response (fig. S1), single replicate ([1]; concentration 0.000004 M): 0.0533 and 0.07958 and 0.05713 and 0.07013 and 0.1112 and 0.008646
PRESTO-Tango response (fig. S1), single replicate ([1]; concentration 0.000008 M): 0.06153 and 0.0682 and 0.07104 and 0.08136 and 0.03922 and 0.08019
PRESTO-Tango response (fig. S1), single replicate ([1]; concentration 3.13e-5 M): 0.0689 and 0.04671 and 0.04196 and 0.06207 and 0.03885 and 0.05666
PRESTO-Tango response (fig. S1), single replicate ([1]; concentration 6.25e-5 M): 0.03211 and 0.04959 and 0.04067 and 0.02014 and 0.05174 and 0.05049
PRESTO-Tango response (fig. S1), single replicate ([1]; concentration 0.00025 M): 0.07947 and 0.03843 and 0.03927 and 0.03864 and 0.06682 and 0.0517
PRESTO-Tango response (fig. S1), single replicate ([1]; concentration 0.0005 M): 0.06213 and 0.03131 and 0.04202 and 0.04862 and 0.02625 and 0.06059
PRESTO-Tango response (fig. S1), single replicate ([1]; concentration 0.001 M): 0.05095 and 0.05745 and 0.03908 and 0.09388 and 0.02339 and 0.03021
PRESTO-Tango response (fig. S1), single replicate ([2]; concentration 9.77e-7 M): 0.004822 and 0.002858 and 0.001836 and 0.006042 and 0.003642 and 0.003121
PRESTO-Tango response (fig. S1), single replicate ([2]; concentration 1.95e-6 M): 0.004669 and 0.01135 and 0.007279 and 0.01201 and 0.004751 and 0.007109
PRESTO-Tango response (fig. S1), single replicate ([2]; concentration 0.000004 M): 0.004146 and 0.005626 and 0.002299 and 0.005155 and 0.007205 and 0.002627
PRESTO-Tango response (fig. S1), single replicate ([2]; concentration 0.000008 M): 0.006851 and 0.005435 and 0.002472 and 0.006078 and 0.009879 and 0.006343
PRESTO-Tango response (fig. S1), single replicate ([2]; concentration 3.13e-5 M): 0.004236 and 0.003572 and 0.004837 and 0.002213 and 0.004661 and 0.004714
PRESTO-Tango response (fig. S1), single replicate ([2]; concentration 6.25e-5 M): 0.00398 and 0.007183 and 0.008495 and 0.006729 and 0.001521 and 0.004353
PRESTO-Tango response (fig. S1), single replicate ([2]; concentration 0.00025 M): 0.001595 and 0.004197 and 0.004126 and 0.004268 and 0.000295 and 0.005991
PRESTO-Tango response (fig. S1), single replicate ([2]; concentration 0.0005 M): 0.002985 and 0.003661 and 0.004712 and 0.003009 and 0.002249 and 0.001042
PRESTO-Tango response (fig. S1), single replicate ([2]; concentration 0.001 M): 0.002207 and 0.002577 and 0.002201 and 0.000402 and 0.004573 and 0.000993
Fig. 1D dose-response, calcium mobilization response (individual replicate) ([3]; Concentration 9.76563e-7 M): -21.027 and -38.068 and -44.01 and -38.887 and -46.292 and -51.601 and -47.998 and -19.021 and -24.245
Fig. 1D dose-response, calcium mobilization response (individual replicate) ([3]; Concentration 1.95313e-6 M): -34.306 and -12.488 and -34.424 and -46.421 and -44.65 and -42.861 and -53.58 and -51.620 and -38.055
Fig. 1D dose-response, calcium mobilization response (individual replicate) ([3]; Concentration 3.90625e-6 M): -45.647 and -46.32 and -35.376 and -38.61 and -34.811 and -45.234 and -56.373 and -60.668 and -3.309
Fig. 1D dose-response, calcium mobilization response (individual replicate) ([3]; Concentration 7.8125e-6 M): -36.025 and -46.229 and -47.556 and -37.359 and -53.743 and -48.739 and -48.609 and -47.284 and -56.875
Fig. 1D dose-response, calcium mobilization response (individual replicate) ([3]; Concentration 1.5625e-5 M): -54.866 and -50.537 and -42.313 and -47.552 and -53.2 and -55.3 and -57.812 and -33.441 and -66.652
Fig. 1D dose-response, calcium mobilization response (individual replicate) ([3]; Concentration 3.125e-5 M): -56.076 and -45.2 and -44.531 and -46.041 and -46.006 and -58.081 and -60.475 and -59.746 and -11.251
Fig. 1D dose-response, calcium mobilization response (individual replicate) ([3]; Concentration 6.25e-5 M): -51.427 and -36.666 and -43.901 and -55.62 and -42.251 and -57.261 and -57.456 and -8.995 and -73.787
Fig. 1D dose-response, calcium mobilization response (individual replicate) ([3]; Concentration 0.00025 M): -40.896 and -34.789 and -49.545 and -32.204 and -28.295 and -45.507 and -42.773 and -53.155 and -37.185
Fig. 1D dose-response, calcium mobilization response (individual replicate) ([3]; Concentration 0.0005 M): -3.046 and -9.71 and -33.403 and -15.448 and -3.273 and -16.368 and -26.248 and -13.645 and -6.391
Fig. 1D dose-response, calcium mobilization response (individual replicate) ([3]; Concentration 0.001 M): -8.458 and -6.416 and -11.748 and -15.382 and -27.522 and -19.884 and -14.893 and -13.481 and -19.179
